Assay results from PubChem BioAssay (NCI).
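Where inhibition never reached the appropriate level, the endpoint shown equals the highest concentration tested. Otherwise, values were interpolated linearly from a five-concentration, 48-hour dose response in 96-well plates. GI50 is the concentration that inhibits growth by half. At the TGI there is no net growth.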

Columns and labels:
Experiment in all cases: NCI-60 cell line screen, 48 h
[1] = system: MDA-MB-231 breast
[2] = system: EKVX NSCLC
[3] = system: KM12 colon
[4] = system: IGROV1 ovarian
[5] = system: U251 CNS
[6] = system: HOP-62 NSCLC
[7] = system: HL-60(TB) leukemia
[8] = system: HCC-2998 colon
[9] = system: NCI-H522 lung
[10] = system: RPMI-8226 leukemia
[11] = system: OVCAR-8 ovarian
[12] = system: SF-295 CNS
[13] = system: COLO 205 colon
[14] = system: ACHN renal
[15] = system: TK-10 renal
[16] = system: HCT-15 colon
[17] = system: HS 578T breast
[18] = system: NCI/ADR-RES ovarian
[19] = system: CCRF-CEM leukemia
[20] = system: A549 NSCLC
[21] = system: OVCAR-4 ovarian
[22] = system: CAKI-1 renal
[23] = system: SW-620 colon
[24] = system: SR leukemia
[25] = system: PC-3 prostate
[26] = system: OVCAR-3 ovarian
[27] = system: MOLT-4 leukemia
[28] = system: UACC-257 melanoma
[29] = system: M14 melanoma
[30] = system: RXF 393 renal
[31] = system: T-47D breast
[32] = system: NCI-H226 lung
[33] = system: HCT-116 colon
[34] = system: SK-MEL-28 melanoma
[35] = system: UO-31 renal
[36] = system: 786-0 renal
[37] = system: SK-OV-3 ovarian
[38] = system: SNB-19 CNS
[39] = system: SNB-75 CNS
[40] = system: DU-145 prostate
[41] = system: SK-MEL-5 melanoma
[42] = system: K-562 leukemia
[43] = system: SN12C renal
[44] = system: MCF7 breast
[45] = system: UACC-62 melanoma
[46] = system: NCI-H23 lung
[47] = system: SF-539 CNS
[48] = system: BT-549 breast
[49] = system: SF-268 CNS
[50] = system: NCI-H460 lung
[51] = system: MDA-MB-435
[52] = system: A498 renal
[53] = system: SK-MEL-2 melanoma
[54] = system: HT29 colon
[55] = system: LOX IMVI melanoma
[56] = system: MALME-3M melanoma
[57] = system: HOP-92 NSCLC
[58] = system: OVCAR-5 ovarian

SMILES: CN(C)c1ccc(/C=C2\Oc3cc(O)ccc3C2=O)cc1
- TGI [1]: > 100 µM
- TGI [2]: > 100 µM
- TGI [3]: > 100 µM
- TGI [4]: > 100 µM
- TGI [5]: > 100 µM
- TGI [6]: > 100 µM
- TGI [7]: > 100 µM
- TGI [8]: > 100 µM
- TGI [9]: > 100 µM
- TGI [10]: > 100 µM
- TGI [11]: > 100 µM
- TGI [12]: > 100 µM
- TGI [13]: > 100 µM
- TGI [14]: > 100 µM
- TGI [15]: > 100 µM
- TGI [16]: > 100 µM
- TGI [17]: > 100 µM
- TGI [18]: > 100 µM
- TGI [19]: > 100 µM
- TGI [20]: > 100 µM
- TGI [21]: > 100 µM
- TGI [22]: > 100 µM
- TGI [23]: > 100 µM
- TGI [24]: > 100 µM
- TGI [25]: > 100 µM
- TGI [26]: > 100 µM
- TGI [27]: > 100 µM
- TGI [28]: > 100 µM
- TGI [29]: > 100 µM
- TGI [30]: > 100 µM
- TGI [31]: > 100 µM
- TGI [32]: > 100 µM
- TGI [33]: > 100 µM
- TGI [34]: > 100 µM
- TGI [35]: > 100 µM
- TGI [36]: > 100 µM
- TGI [37]: > 100 µM
- TGI [38]: > 100 µM
- TGI [39]: > 100 µM
- TGI [40]: > 100 µM
- TGI [41]: > 100 µM
- TGI [42]: > 100 µM
- TGI [43]: > 100 µM
- TGI [44]: > 100 µM
- TGI [45]: > 100 µM
- TGI [46]: > 100 µM
- TGI [47]: > 100 µM
- TGI [48]: > 100 µM
- TGI [49]: > 100 µM
- TGI [50]: > 100 µM
- TGI [51]: > 100 µM

SMILES: CC(C)c1ccc(Cc2cnc(NC(=O)c3cc(Br)cs3)s2)cc1
- GI50 [1]: 3.09 µM
- TGI [1]: 19.4 µM
- GI50 [52]: 0.242 µM
- TGI [52]: 4.67 µM
- GI50 [2]: 4 µM
- TGI [2]: > 100 µM
- GI50 [3]: 2.12 µM
- TGI [3]: > 100 µM
- GI50 [4]: 3.7 µM
- TGI [4]: > 100 µM
- GI50 [5]: 3.42 µM
- TGI [5]: > 100 µM
- GI50 [6]: 3.05 µM
- TGI [6]: 29.2 µM
- GI50 [7]: 3.6 µM
- TGI [7]: > 100 µM
- GI50 [8]: 3.65 µM
- TGI [8]: > 100 µM
- GI50 [53]: 7.43 µM
- TGI [53]: 64.4 µM
- GI50 [9]: 1.48 µM
- TGI [9]: 5.76 µM
- GI50 [10]: 3.6 µM
- TGI [10]: > 100 µM
- GI50 [11]: 4.4 µM
- TGI [11]: > 100 µM
- GI50 [12]: 2 µM
- TGI [12]: 19.6 µM
- GI50 [13]: 2.92 µM
- TGI [13]: 15 µM
- GI50 [14]: 4.64 µM
- TGI [14]: > 100 µM
- GI50 [54]: 4.5 µM
- TGI [54]: > 100 µM
- GI50 [55]: 5.35 µM
- TGI [55]: > 100 µM
- GI50 [15]: 2.72 µM
- TGI [15]: 19.4 µM
- GI50 [16]: 0.789 µM
- TGI [16]: > 100 µM
- GI50 [56]: 3.44 µM
- TGI [56]: > 100 µM
- GI50 [17]: 2.48 µM
- TGI [17]: 58.2 µM
- GI50 [18]: 1.73 µM
- TGI [18]: 5.31 µM
- GI50 [57]: 5.51 µM
- TGI [57]: 87.5 µM
- GI50 [19]: 4.08 µM
- TGI [19]: > 100 µM
- GI50 [20]: 3.65 µM
- TGI [20]: > 100 µM
- GI50 [21]: 4.65 µM
- TGI [21]: > 100 µM
- GI50 [22]: 1.16 µM
- TGI [22]: > 100 µM
- GI50 [23]: 2.98 µM
- TGI [23]: > 100 µM
- GI50 [25]: 2.23 µM
- TGI [25]: > 100 µM
- GI50 [26]: 2.75 µM
- TGI [26]: > 100 µM
- GI50 [27]: 7.59 µM
- TGI [27]: > 100 µM
- GI50 [28]: 7.6 µM
- TGI [28]: > 100 µM
- GI50 [29]: 2.44 µM
- TGI [29]: > 100 µM
- GI50 [30]: 1.75 µM
- TGI [30]: 5.97 µM
- GI50 [31]: 4.27 µM
- TGI [31]: > 100 µM
- GI50 [32]: 5.68 µM
- TGI [32]: > 100 µM
- GI50 [33]: 2.98 µM
- TGI [33]: > 100 µM
- GI50 [34]: 5.41 µM
- TGI [34]: > 100 µM
- GI50 [58]: 4.95 µM
- TGI [58]: > 100 µM
- GI50 [35]: 3.8 µM
- TGI [35]: > 100 µM
- GI50 [36]: 4.55 µM
- TGI [36]: > 100 µM
- GI50 [37]: 6.06 µM
- TGI [37]: 95.7 µM
- GI50 [38]: 5.02 µM
- TGI [38]: > 100 µM
- GI50 [39]: 1.05 µM
- TGI [39]: 7.76 µM
- GI50 [40]: 3.67 µM
- TGI [40]: > 100 µM
- GI50 [41]: 1.9 µM
- TGI [41]: > 100 µM
- GI50 [42]: 0.436 µM
- TGI [42]: > 100 µM
- GI50 [43]: 4.21 µM
- TGI [43]: > 100 µM
- GI50 [44]: 1.6 µM
- TGI [44]: > 100 µM
- GI50 [45]: 1.38 µM
- TGI [45]: > 100 µM
- GI50 [46]: 3.45 µM
- TGI [46]: > 100 µM
- GI50 [47]: 2.04 µM
- TGI [47]: 5.64 µM
- GI50 [48]: 3.81 µM
- TGI [48]: > 100 µM
- GI50 [49]: 5.89 µM
- TGI [49]: > 100 µM
- GI50 [50]: 3.3 µM
- TGI [50]: > 100 µM
- GI50 [51]: 0.355 µM
- TGI [51]: 2.16 µM
